Results on 12 compounds are retold here after patent US10815213B2, “Bruton's tyrosine kinase inhibitors” (Pfizer Inc., priority 2013, dated 2020).

For experiment [1], the target named is human full-length BTK Kinase (Homo sapiens (Human), UniProt Q06187). Description: Human BTK LanthaScreen Assay (TR-FRET). Conditions: 50 μM ATP, 70 pM BTK, 100 nM FAM-Srctide; run with and without 60 minutes pre-incubation (table does not say which); read-out: BTK Inhibition IC50. Type of experiment: biochemical. A general note: Time-resolved FRET reads energy transfer from a long-lived donor to a nearby acceptor.

The next experiment concerns the target human EGFR kinase domain (Homo sapiens (Human), UniProt P00533). Description: Human EGFR LanthaScreen Selectivity Assay (TR-FRET). In kind it is biochemical. The conditions noted are these: 20 μM ATP, 600 pM EGFR kinase domain; run with and without 60 minutes pre-incubation.
For the next experiment, the system named is Human B cells. In words: Human Primary B Cell Proliferation Assay. Type of experiment: cell-based. The conditions noted are these: 50 μg/mL anti-human IgM F(ab')2 for 72 hours, 3H-thymidine incorporation. How it is done:
Human B cells were purified from buffy coats using the human B cell RosetteSep kit per manufacturer's instructions. Purified cells were resuspended in RPMI-10% HIFCS, 2 mM L-glutamine, 100 U/mL penicillin, 100 μg/ml streptomycin, incubated with compounds for 1 hour at 37° C. and then stimulated with 50 μg/mL anti-human IgM F(ab′)2 for 72 hours. ^3H-thymidine was included in the culture media for the final 8-16 hours. Cells were harvested and ^3H-thymidine incorporation was measured.
For orientation: Incorporation of labelled thymidine or its analogues reports DNA synthesis.

human full-length BTK Kinase, sequence (Q06187 whole entry): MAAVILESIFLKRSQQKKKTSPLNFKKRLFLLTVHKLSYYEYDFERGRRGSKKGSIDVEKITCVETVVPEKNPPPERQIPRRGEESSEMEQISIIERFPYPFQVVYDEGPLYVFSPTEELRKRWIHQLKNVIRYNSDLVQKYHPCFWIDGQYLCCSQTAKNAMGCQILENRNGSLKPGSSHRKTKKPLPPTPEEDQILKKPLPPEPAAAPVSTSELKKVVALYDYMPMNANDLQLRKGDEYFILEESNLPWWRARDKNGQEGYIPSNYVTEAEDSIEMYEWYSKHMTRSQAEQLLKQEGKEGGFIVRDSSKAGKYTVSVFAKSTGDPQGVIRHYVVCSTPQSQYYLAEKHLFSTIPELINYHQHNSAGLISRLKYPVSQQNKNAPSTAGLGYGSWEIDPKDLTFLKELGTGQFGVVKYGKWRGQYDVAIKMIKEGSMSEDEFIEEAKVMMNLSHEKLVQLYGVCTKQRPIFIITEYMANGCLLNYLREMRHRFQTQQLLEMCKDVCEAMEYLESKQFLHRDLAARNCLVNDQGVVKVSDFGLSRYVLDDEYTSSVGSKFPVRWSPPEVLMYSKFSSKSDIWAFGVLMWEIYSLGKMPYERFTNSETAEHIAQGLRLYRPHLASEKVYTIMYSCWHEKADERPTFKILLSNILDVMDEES
human EGFR kinase domain, sequence (P00533 712-979): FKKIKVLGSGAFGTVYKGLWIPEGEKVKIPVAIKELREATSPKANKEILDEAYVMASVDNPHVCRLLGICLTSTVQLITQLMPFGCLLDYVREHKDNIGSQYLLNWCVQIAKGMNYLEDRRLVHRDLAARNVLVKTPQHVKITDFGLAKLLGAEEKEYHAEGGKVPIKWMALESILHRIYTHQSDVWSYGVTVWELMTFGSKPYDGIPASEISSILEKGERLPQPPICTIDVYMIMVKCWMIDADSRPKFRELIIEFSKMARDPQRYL
Method for human EGFR kinase domain: The kinase reaction mixtures were incubated at room temperature for 60 minutes before stopping the kinase activity by the addition of 15 mM EDTA. The extent of peptide phosphorylation by EGFR was detected using a Terbium-conjugated anti-phospho-Tyrosine antibody (Tb-PT66 antibody, Invitrogen # PV3557).

The IC50 is the midpoint of a concentration-inhibition curve. In the case of `NC(=O)c1c(-c2ccc(Oc3ccc(Cl)cc3)cc2)nn([C@@H]2CCCN(C(=O)/C=C/CO)C2)c1N` [Example 131, 5-amino-3-[4-(4-chlorophenoxy)phenyl]-1-{(3R)-1-[(2E)-4-hydroxybut-2-enoyl]piperidin-3-yl}-1H-pyrazole-4-carboxamide], the results for the IC50 (in experiment [1]; against human EGFR kinase domain) were 2.3 nM and 2200 nM, respectively.

Turning to `NC(=O)c1c(-c2ccc(Oc3ccc(Cl)cc3)cc2)nn([C@@H]2CCCN(C(=O)/C=C/CF)C2)c1N` [Example 132, 5-amino-3-[4-(4-chlorophenoxy)phenyl]-1-{(3R)-1-[(2E)-4-fluorobut-2-enoyl]piperidin-3-yl}-1H-pyrazole-4-carboxamide], in experiment [1], the IC50 turned out to be 1.1 nM.

`NC(=O)c1c(-c2ccc(Oc3ccc(F)cc3F)cc2)nn([C@@H]2CCCN(C(=O)/C=C/CF)C2)c1N` [Example 145, 5-amino-3-[4-(2,4-difluorophenoxy)phenyl]-1-{(3R)-1-[(2E)-4-fluorobut-2-enoyl]piperidin-3-yl}-1H-pyrazole-4-carboxamide]: the concentration for half-maximal inhibition (IC50) in experiment [1] turned out to be 2.8 nM; on human EGFR kinase domain, 2180 nM.

On to `NC(=O)c1c(-c2ccc(Oc3ccc(F)cc3F)cc2)nn([C@@H]2CCCN(C(=O)/C(F)=C/CO)C2)c1N` [Example 146, 5-amino-3-[4-(2,4-difluorophenoxy)phenyl]-1-{(3R)-1-[(2Z)-2-fluoro-4-hydroxybut-2-enoyl]piperidin-3-yl}-1H-pyrazole-4-carboxamide], for which the IC50 in experiment [1] stood at 48 nM.

On to `CC(C)(O)/C=C/C(=O)N1CCC[C@@H](n2nc(-c3ccc(Oc4ccc(F)cc4F)cc3)c(C(N)=O)c2N)C1` [Example 147, 5-amino-3-[4-(2,4-difluorophenoxy)phenyl]-1-{(3R)-1-[(2E)-4-hydroxy-4-methylpent-2-enoyl]piperidin-3-yl}-1H-pyrazole-4-carboxamide], for which the IC50 in experiment [1] was found to be 241 nM.

Turning to `C[C@H](O)/C=C/C(=O)N1CCC[C@@H](n2nc(-c3ccc(Oc4ccc(F)cc4F)cc3)c(C(N)=O)c2N)C1` [Example 148, 5-amino-3-[4-(2,4-difluorophenoxy)phenyl]-1-{(3R)-1-[(2E,4S)-4-hydroxypent-2-enoyl]piperidin-3-yl}-1H-pyrazole-4-carboxamide], the IC50 in experiment [1] was 39 nM.

With `C[C@@H](O)/C=C/C(=O)N1CCC[C@@H](n2nc(-c3ccc(Oc4ccc(F)cc4F)cc3)c(C(N)=O)c2N)C1` [Example 149, 5-amino-3-(4-(2,4-difluorophenoxy)phenyl)-1-((R)-1-((R,E)-4-hydroxypent-2-enoyl)piperidin-3-yl)-1H-pyrazole-4-carboxamide], the half-maximal inhibitory concentration (IC50) in experiment [1] was determined as 52 nM.

As for `NC(=O)c1c(-c2ccc(Oc3ccc(F)cc3F)cc2)nn([C@@H]2CCCN(C(=O)/C=C/CO)C2)c1N` [Example 151, 5-amino-3-[4-(2,4-difluorophenoxy)phenyl]-1-{(3R)-1-[(2E)-4-hydroxybut-2-enoyl]-piperidin-3-yl}-1H-pyrazole-4-carboxamide], the concentration for half-maximal inhibition (IC50) in experiment [1] was found to be 2.3 nM; against human EGFR kinase domain, 12100 nM.

With `N#C/C=C/C(=O)N1CCC[C@@H](n2nc(-c3ccc(Oc4ccc(F)cc4F)cc3)c(C(N)=O)c2N)C1` [Example 152, 5-amino-1-{(3R)-1-[(2E)-3-cyanoprop-2-enoyl]piperidin-3-yl}-3-[4-(2,4-difluorophenoxy)phenyl]-1H-pyrazole-4-carboxamide], the half-maximal inhibitory concentration (IC50) in experiment [1] stood at 1.5 nM.

Turning to `NC(=O)c1c(-c2ccc(Oc3ncc(Cl)cc3F)cc2)nn([C@@H]2CCCN(C(=O)/C=C/CO)C2)c1N` [Example 154, 5-amino-3-{4-[(5-chloro-3-fluoropyridin-2-yl)oxy]phenyl}-1-{(3R)-1-[(2E)-4-hydroxybut-2-enoyl]piperidin-3-yl}-1H-pyrazole-4-carboxamide], the IC50 in experiment [1] came out at 49 nM.

Take `NC(=O)c1c(-c2ccc(Oc3ncc(Cl)cc3F)cc2)nn([C@@H]2CCCN(C(=O)/C=C/C(F)F)C2)c1N` [Example 155, 5-amino-3-{4-[(5-chloro-3-fluoropyridin-2-yl)oxy]phenyl}-1-{(3R)-1-[(2E)-4,4-difluorobut-2-enoyl]piperidin-3-yl}-1H-pyrazole-4-carboxamide]: the IC50 in experiment [1] worked out at 0.7 nM; with Human B cells it was 2 nM; against human EGFR kinase domain, 106 nM.

For `NC(=O)c1c(-c2ccc(Oc3ncc(Cl)cc3F)cc2)nn([C@@H]2CCCN(C(=O)/C=C/CF)C2)c1N` [Example 156, 5-amino-3-{4-[(5-chloro-3-fluoropyridin-2-yl)oxy]phenyl}-1-{(3R)-1-[(2E)-4-fluorobut-2-enoyl]piperidin-3-yl}-1H-pyrazole-4-carboxamide], the IC50 turned out to be 1.4 nM in experiment [1] and 381 nM at human EGFR kinase domain.
